The source of these data is PubChem BioAssay (NCI).

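Values below derive from 48-hour exposures of cells grown in 96-well plates, with endpoints linearly interpolated between the two concentrations bracketing the appropriate inhibition level. TGI marks complete inhibition of growth.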

Some test systems named below: SF-268 CNS; MDA-MB-231 breast; RPMI-8226 leukemia; 786-0 renal; HT29 colon; NCI/ADR-RES ovarian; IGROV1 ovarian; CAKI-1 renal; NCI-H226 lung; SF-539 CNS; NCI-H23 lung.
Test in all cases: NCI tumour cell line growth inhibition, 48 h

Consider `CN(C)CCCn1nc(N)c2nc3cc(Cl)ccc3nc21`, for which the TGI in the assay on SF-268 CNS, in the assay on MDA-MB-231 breast, in the assay with RPMI-8226 leukemia, in the assay on 786-0 renal, in the assay with HT29 colon and in the assay on NCI/ADR-RES ovarian was > 100 µM each time. Further, the TGI in the assay on IGROV1 ovarian is 94.8 µM; in the assay with CAKI-1 renal, > 100 µM; in the assay on NCI-H226 lung, > 100 µM; with SF-539 CNS, > 100 µM; with NCI-H23 lung it was > 100 µM.
On to `O=C1CC(c2cccc(Br)c2)n2cccc21` (centres undefined), for which the TGI in the assay with SF-268 CNS, with MDA-MB-231 breast, in the assay with RPMI-8226 leukemia, with 786-0 renal, in the assay with HT29 colon and with NCI/ADR-RES ovarian was > 100 µM throughout. Moreover, the TGI with IGROV1 ovarian, in the assay on CAKI-1 renal, with NCI-H226 lung, in the assay with SF-539 CNS and with NCI-H23 lung was > 100 µM in each case.
Consider `Oc1ccc(Cl)cc1CN1CCN(Cc2cc(Cl)ccc2O)C1`, for which the TGI with SF-268 CNS is 12.8 µM; in the assay on MDA-MB-231 breast, 10.2 µM; with RPMI-8226 leukemia it was 15.3 µM; with 786-0 renal it was 5.93 µM; in the assay with HT29 colon it was 13 µM; in the assay on NCI/ADR-RES ovarian it was 1.1 µM. Also, the TGI in the assay on IGROV1 ovarian stood at 6.47 µM; in the assay on CAKI-1 renal, 6.48 µM; with NCI-H226 lung, 4.66 µM; with SF-539 CNS, 2.81 µM; in the assay with NCI-H23 lung, 5.53 µM.
`CCOC(=O)C(Cc1cccn1C(=O)OC(C)(C)C)[N+](=O)[O-]` (centres undefined): the TGI in the assay on SF-268 CNS is > 100 µM; in the assay on MDA-MB-231 breast, 44.7 µM; with RPMI-8226 leukemia, 45.1 µM; in the assay with 786-0 renal, 51.3 µM; in the assay with HT29 colon, 50.3 µM; in the assay with NCI/ADR-RES ovarian it was > 100 µM. Moreover, the TGI was 43.3 µM in the assay with IGROV1 ovarian; 64.5 µM in the assay with CAKI-1 renal; 67.3 µM in the assay on NCI-H226 lung; 58.7 µM in the assay with SF-539 CNS; > 100 µM in the assay with NCI-H23 lung.
